How the values were obtained:
[1] = Hygroscopicity measurements (DVS sorption/desorption profiles); assay type: physicochemical; details: for Hygroscopicity classification: 0-90% relative humidity
Method: The sorption/desorption profiles of the forms of the present invention were tested at 25° C. under 0-90% relative humidity. The forms of the present invention were classified according to the following criteria: Deliquescent: Sufficient water is absorbed to form a liquid. […] Hygroscopic: Increase in mass is less than 15% and equal to or greater than 2%. Slightly hygroscopic: Increase in mass is less than 2% and equal to or greater than 0.2%. Non-hygroscopic: Increase in mass is less than 0.2%.

[2] = Bulk and tapped density measurements; assay type: physicochemical; details: for bulk and tapped densities (in words): compared among forms V, IX, XI and form G
Method: Bulk density testing: A febuxostat form in an amount which is sufficient to complete the test was passed through a 1.0 mm (No. 18) screen to break up agglomerates that may have formed during storage. The febuxostat form was then weighed (M) and the powder was added into a 10 mL graduated cylinder. The powder was carefully leveled without compacting, and the unsettled apparent volume, Vo, was read. The bulk density, in g per mL, was calculated by the formula: Bulk Density=M/Vo Tapped density testing: A febuxostat form in an amount which is sufficient to complete the test was passed through a 1.0 mm (No. 18) screen to break up agglomerates that may have formed during storage. The febuxostat form was then weighed and the powder was added into a 10 mL graduated cylinder. The powder was carefully leveled without compacting. The cylinder was tapped 500 times initially and the tapped volume, Va, was measured to the nearest graduated unit. The tapping was then repeated for additional 750 times and the tapped volume, Vb, was measured to the nearest graduated unit. If the difference between the two volumes was less than 2%, Vb was taken as the final tapped volume, Vf. The tapped density, in g per mL, was calculated by the formula: Tapped Density=M/Vf

SMILES | Hygroscopicity classification ([1]; 25° C.) | Change in Mass (%) - ref, Desorption ([1]; Target % P/P0 0.0, 25° C.) | Change in Mass (%) - ref, Sorption ([1]; Target % P/P0 0.0, 25° C.) | Change in Mass (%) - ref, Desorption ([1]; Target % P/P0 10.0, 25° C.) | Change in Mass (%) - ref, Hysteresis ([1]; Target % P/P0 10.0, 25° C.) | Change in Mass (%) - ref, Sorption ([1]; Target % P/P0 10.0, 25° C.) | Change in Mass (%) - ref, Desorption ([1]; Target % P/P0 20.0, 25° C.) | Change in Mass (%) - ref, Hysteresis ([1]; Target % P/P0 20.0, 25° C.) | Change in Mass (%) - ref, Sorption ([1]; Target % P/P0 20.0, 25° C.) | Change in Mass (%) - ref, Desorption ([1]; Target % P/P0 30.0, 25° C.) | Change in Mass (%) - ref, Hysteresis ([1]; Target % P/P0 30.0, 25° C.) | Change in Mass (%) - ref, Sorption ([1]; Target % P/P0 30.0, 25° C.) | Change in Mass (%) - ref, Desorption ([1]; Target % P/P0 40.0, 25° C.) | Change in Mass (%) - ref, Hysteresis ([1]; Target % P/P0 40.0, 25° C.) | Change in Mass (%) - ref, Sorption ([1]; Target % P/P0 40.0, 25° C.) | Change in Mass (%) - ref, Desorption ([1]; Target % P/P0 50.0, 25° C.) | Change in Mass (%) - ref, Hysteresis ([1]; Target % P/P0 50.0, 25° C.) | Change in Mass (%) - ref, Sorption ([1]; Target % P/P0 50.0, 25° C.) | Change in Mass (%) - ref, Desorption ([1]; Target % P/P0 60.0, 25° C.) | Change in Mass (%) - ref, Hysteresis ([1]; Target % P/P0 60.0, 25° C.) | other results
Cc1nc(-c2ccc(OCC(C)C)c(C#N)c2)sc1C(=O)O [Form IX, 2-(3-cyano-4-isobutoxyphenyl)-4-methyl-5-thiazolecarboxylic acid] | hygroscopic | 0.031% | 0.000% | 0.247% | 0.121% | 0.127% | 0.323% | 0.128% | 0.195% | 0.428% | 0.176% | 0.252% | 0.510% | 0.160% | 0.351% | 0.616% | 0.184% | 0.432% | 0.786% | 0.221% | hygroscopicity compared with Form G of U.S. Pat. No. 6,225,474 ([1]; DVS isotherm plots): less hygroscopic; Change in Mass (%) - ref, Sorption ([1]; Target % P/P0 60.0, 25° C.): 0.566%; Change in Mass (%) - ref, Desorption ([1]; Target % P/P0 70.0, 25° C.): 1.139%; Change in Mass (%) - ref, Hysteresis ([1]; Target % P/P0 70.0, 25° C.): 0.391%; Change in Mass (%) - ref, Sorption ([1]; Target % P/P0 70.0, 25° C.): 0.747%; Change in Mass (%) - ref, Desorption ([1]; Target % P/P0 80.0, 25° C.): 1.583%; Change in Mass (%) - ref, Hysteresis ([1]; Target % P/P0 80.0, 25° C.): 0.583%; Change in Mass (%) - ref, Sorption ([1]; Target % P/P0 80.0, 25° C.): 1.000%; Change in Mass (%) - ref, Desorption ([1]; Target % P/P0 90.0, 25° C.): 2.135%; Change in Mass (%) - ref, Sorption ([1]; Target % P/P0 90.0, 25° C.): 2.135%; Bulk Density [2]: 0.177 g/mL; Tapped Density [2]: 0.282 g/mL; bulk and tapped densities (in words) [2]: lowest bulk and tapped densities
Cc1nc(-c2ccc(OCC(C)C)c(C#N)c2)sc1C(=O)O [Form V, 2-(3-cyano-4-isobutoxyphenyl)-4-methyl-5-thiazolecarboxylic acid] | very hygroscopic | −9.66% | 0.00% | −8.56% | −8.64% | 0.08% | −8.49% | −8.60% | 0.12% | −8.40% | −8.53% | 0.14% | −8.30% | −8.50% | 0.20% | 1.16% | 0.93% | 0.23% | 7.34% | 7.02% | weight loss after sorption-desorption cycle ([1]; DVS, 25° C., might be attributed to DMSO evaporation at high humidity): about 10%; Change in Mass (%) - ref, Sorption ([1]; Target % P/P0 60.0, 25° C.): 0.31%; Change in Mass (%) - ref, Desorption ([1]; Target % P/P0 70.0, 25° C.): 14.03%; Change in Mass (%) - ref, Hysteresis ([1]; Target % P/P0 70.0, 25° C.): 12.45%; Change in Mass (%) - ref, Sorption ([1]; Target % P/P0 70.0, 25° C.): 1.59%; Change in Mass (%) - ref, Desorption ([1]; Target % P/P0 80.0, 25° C.): 23.42%; Change in Mass (%) - ref, Hysteresis ([1]; Target % P/P0 80.0, 25° C.): 7.98%; Change in Mass (%) - ref, Sorption ([1]; Target % P/P0 80.0, 25° C.): 15.44%; Change in Mass (%) - ref, Desorption ([1]; Target % P/P0 90.0, 25° C.): 36.92%; Change in Mass (%) - ref, Sorption ([1]; Target % P/P0 90.0, 25° C.): 36.92%; Bulk Density [2]: 0.444 g/mL; Tapped Density [2]: 0.637 g/mL; bulk and tapped densities (in words) [2]: adequate bulk and tapped densities
Cc1nc(-c2ccc(OCC(C)C)c(C#N)c2)sc1C(=O)O [Form XI, 2-(3-cyano-4-isobutoxyphenyl)-4-methyl-5-thiazolecarboxylic acid] | hygroscopic | −0.052% | 0.001% | 0.973% | 0.164% | 0.810% | 1.210% | 0.146% | 1.064% | 1.425% | 0.203% | 1.222% | 1.560% | 0.150% | 1.410% | 1.728% | 0.169% | 1.559% | 1.948% | 0.166% | Change in Mass (%) - ref, Sorption ([1]; Target % P/P0 60.0, 25° C.): 1.782%; Change in Mass (%) - ref, Desorption ([1]; Target % P/P0 70.0, 25° C.): 2.187%; Change in Mass (%) - ref, Hysteresis ([1]; Target % P/P0 70.0, 25° C.): 0.130%; Change in Mass (%) - ref, Sorption ([1]; Target % P/P0 70.0, 25° C.): 2.057%; Change in Mass (%) - ref, Desorption ([1]; Target % P/P0 80.0, 25° C.): 2.503%; Change in Mass (%) - ref, Hysteresis ([1]; Target % P/P0 80.0, 25° C.): 0.089%; Change in Mass (%) - ref, Sorption ([1]; Target % P/P0 80.0, 25° C.): 2.414%; Change in Mass (%) - ref, Desorption ([1]; Target % P/P0 90.0, 25° C.): 3.111%; Change in Mass (%) - ref, Sorption ([1]; Target % P/P0 90.0, 25° C.): 3.111%; Bulk Density [2]: 0.346 g/mL; Tapped Density [2]: 0.553 g/mL; bulk and tapped densities (in words) [2]: adequate bulk and tapped densities
